Test results taken from patent US11976084B2, “Spiropyrrolidine derived antiviral agents” (Enanta Pharmaceuticals, Inc., priority 2020, dated 2024).

Target: SARS-CoV-2 3CL-protease (Severe acute respiratory syndrome coronavirus 2, UniProt P0DTD1)
Experiment: SARS-CoV-2 3C-like (3CL) protease fluorescence assay (FRET)
Format: biochemical
Conditions: recombinant SARS-CoV-2 3CL-protease 10 nM, 30 min preincubation at RT, TAMRA-[…]-Dabcyl-OH substrate, run in duplicate
Protocol: SARS-CoV-2 3C-like (3CL) protease fluorescence assay (FRET): Recombinant SARS-CoV-2 3CL-protease was expressed and purified. TAMRA-[…]-Dabcyl-OH peptide 3CLpro substrate was synthesized. Black, low volume, round-bottom, 384 well microplates were used. In a typical assay, 0.85 μL of test compound was dissolved in DMSO then incubated with SARS-CoV-2 3CL-protease (10 nM) in 10 μL assay buffer (50 mM HEPES [pH 7.5], 1 mM DTT, 0.01% BSA, 0.01% Triton-X 100) for 30 min at RT. Next, 10 μL of 3CL-protease substrate (40 μM) in assay buffer was added and the assays were monitored continuously for 1 h in an Envision multimode plate reader operating in fluorescence kinetics mode with excitation at 540 nm and emission at 580 nm at RT. No compound (DMSO only) and no enzyme controls were routinely included in each plate. All experiments were run in duplicate. Data Analysis: SARS-CoV-2 3CL-protease enzyme activity was measured as initial velocity of the linear phase (RFU/s) and normalized to controlled samples DMSO (100% activity) and no enzyme (0% activity) to determine percent residual activity at various concentrations of test compounds (0-10 μM). Data were fitted to normalized activity (variable slope) versus concentration fit in GraphPad Prism 7 to determine IC50.

First: COc1cccc2oc(C(=O)N3C[C@H]4[C@@H]([C@H]3C(=O)N3C[C@]5(C[C@H]3C#N)C(=O)Nc3ccccc35)C4(C)C)cc12 [Example 3]
Second: CC1(C)[C@@H]2[C@@H](C(=O)N3C[C@]4(C[C@H]3C#N)C(=O)Nc3ccccc34)N(C(=O)c3cc4c(OC(F)F)cccc4[nH]3)C[C@@H]21 [Example 8]
The IC50 of the first is lower: less than 100 nM for the first, 100 to 1000 nM for the second. The first is the more potent here.

First: COc1cccc2[nH]c(C(=O)N3C[C@@H]4CCC[C@@H]4[C@H]3C(=O)N3C[C@]4(C[C@H]3C#N)C(=O)Nc3ccccc34)cc12 [Example 1]
Second: N#C[C@@H]1C[C@@]2(CN1C(=O)[C@@H]1[C@H]3CCC[C@H]3CN1C(=O)c1cc3c(F)cc(F)cc3[nH]1)C(=O)Nc1ccccc12 [Example 7]
The IC50 of the first is lower: less than 100 nM for the first, 100 to 1000 nM for the second.

`COc1cccc2[nH]c(C(=O)N3CC4(CC4)C[C@H]3C(=O)N3C[C@]4(C[C@H]3C#N)C(=O)Nc3ccccc34)cc12` [Example 2] and `COc1cccc2[nH]c(C(=O)N3C[C@@]4(C[C@H]3C(=O)N3C[C@]5(C[C@H]3C#N)C(=O)Nc3ccccc35)CC4(F)F)cc12` [Example 4] fall in the same range of IC50: 100 to 1000 nM for the first, 100 to 1000 nM for the second.

First: COc1cccc2[nH]c(C(=O)N3[C@@H]4C[C@@H]4C[C@H]3C(=O)N3C[C@]4(C[C@H]3C#N)C(=O)Nc3ccccc34)cc12 [Example 5]
Second: N#C[C@@H]1C[C@@]2(CN1C(=O)[C@@H]1[C@H]3CCC[C@H]3CN1C(=O)OCc1ccccc1)C(=O)Nc1ccccc12 [Example 6]
The IC50 of the first is lower: less than 100 nM for the first, 100 to 1000 nM for the second.
